Values of other authors in patent US20240325452A1, “METHODS AND COMPOSITIONS FOR DREADD-ACTIVATABLE CELLS FOR NEURAL REPAIR” (Drexel University, priority 2023, published 2024).
Blank lines part the entries; values can stand above or below the compound they belong to.

Assays:
[1] = it has been reported
hM3Dq and hM4Di DREADDs = conditions: marketed ligands, active in vivo
hM3Dq = hM3Dq (Homo sapiens, UniProt P20309, A239G/Y149C); conditions: hM3 with two point mutations
Sequence of hM3Dq (P20309 whole entry Y149C/A239G): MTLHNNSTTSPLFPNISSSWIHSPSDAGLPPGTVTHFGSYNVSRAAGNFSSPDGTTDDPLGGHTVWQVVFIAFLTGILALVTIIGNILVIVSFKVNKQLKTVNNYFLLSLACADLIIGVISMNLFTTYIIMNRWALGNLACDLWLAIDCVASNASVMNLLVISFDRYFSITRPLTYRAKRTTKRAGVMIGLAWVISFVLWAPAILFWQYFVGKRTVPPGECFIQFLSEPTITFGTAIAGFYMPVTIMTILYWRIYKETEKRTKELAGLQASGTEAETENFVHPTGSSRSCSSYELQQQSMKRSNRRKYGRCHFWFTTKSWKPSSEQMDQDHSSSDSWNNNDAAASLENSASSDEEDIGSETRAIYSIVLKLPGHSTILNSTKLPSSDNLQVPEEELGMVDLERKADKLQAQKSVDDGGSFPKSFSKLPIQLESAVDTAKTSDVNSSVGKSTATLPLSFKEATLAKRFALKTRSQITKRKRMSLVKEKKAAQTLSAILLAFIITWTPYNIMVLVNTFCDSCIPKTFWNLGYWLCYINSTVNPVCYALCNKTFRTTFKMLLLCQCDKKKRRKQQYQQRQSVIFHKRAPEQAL

bioavailability, pharmacokinetic properties and brain penetrability [1]: excellent
SMILES: c1ccc2c(c1)N=C(N1CCNCC1)c1ccccc1N2 [Compound 21]
reverse metabolism to clozapine [1]: does not undergo reverse metabolism to clozapine

SMILES: CCN1CCN(C2=Nc3cc(Cl)ccc3Nc3c(F)cccc32)CC1 [JHU37160]
potency and affinity (hM3Dq and hM4Di DREADDs): high potency and affinity

potency at mutant receptor (hM3Dq): nanomolar potency
SMILES: C[N+]1([O-])CCN(C2=Nc3cc(Cl)ccc3Nc3ccccc32)CC1 [CNO, clozapine N-oxide]
